Tests used:
human TLR9 = human TLR9 (Homo sapiens (Human), UniProt Q9NR96); experiment: TLR9 inhibition reporter assay (HEK-Blue SEAP); conditions: read-out: TLR9 IC50; HEK-Blue cells overexpressing human TLR9, ODN2006 5 nM stimulation, SEAP reporter;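 note: SEAP driven by an IFN-β minimal promoter with NF-κB and AP-1 sites, read after 22 h, compounds dosed 0.05 nM–50 µM, inhibition scaled between agonist plus DMSO and reference-inhibitor wells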
human TLR7 = human TLR7 (Homo sapiens (Human), UniProt Q9NYK1); experiment: TLR7 inhibition reporter assay (HEK-Blue SEAP); format: cell-based; conditions: HEK-Blue cells overexpressing human TLR7, gardiquimod 7.5 μM stimulation, SEAP reporter
human TLR8 = human TLR8 (Homo sapiens (Human), UniProt Q9NR97); experiment: TLR8 inhibition reporter assay (HEK-Blue SEAP); conditions: read-out: TLR8 IC50; HEK-Blue cells overexpressing human TLR8, R848 15.9 μM stimulation, SEAP reporter;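 note: SEAP driven by IFN-β minimal promoter carrying NF-κB and AP-1 sites, compounds dosed 0.05 nM to 50 µM for 22 h, inhibition scaled between agonist-plus-DMSO and reference-inhibitor wells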
human TLR8, sequence (Q9NR97 27-1041): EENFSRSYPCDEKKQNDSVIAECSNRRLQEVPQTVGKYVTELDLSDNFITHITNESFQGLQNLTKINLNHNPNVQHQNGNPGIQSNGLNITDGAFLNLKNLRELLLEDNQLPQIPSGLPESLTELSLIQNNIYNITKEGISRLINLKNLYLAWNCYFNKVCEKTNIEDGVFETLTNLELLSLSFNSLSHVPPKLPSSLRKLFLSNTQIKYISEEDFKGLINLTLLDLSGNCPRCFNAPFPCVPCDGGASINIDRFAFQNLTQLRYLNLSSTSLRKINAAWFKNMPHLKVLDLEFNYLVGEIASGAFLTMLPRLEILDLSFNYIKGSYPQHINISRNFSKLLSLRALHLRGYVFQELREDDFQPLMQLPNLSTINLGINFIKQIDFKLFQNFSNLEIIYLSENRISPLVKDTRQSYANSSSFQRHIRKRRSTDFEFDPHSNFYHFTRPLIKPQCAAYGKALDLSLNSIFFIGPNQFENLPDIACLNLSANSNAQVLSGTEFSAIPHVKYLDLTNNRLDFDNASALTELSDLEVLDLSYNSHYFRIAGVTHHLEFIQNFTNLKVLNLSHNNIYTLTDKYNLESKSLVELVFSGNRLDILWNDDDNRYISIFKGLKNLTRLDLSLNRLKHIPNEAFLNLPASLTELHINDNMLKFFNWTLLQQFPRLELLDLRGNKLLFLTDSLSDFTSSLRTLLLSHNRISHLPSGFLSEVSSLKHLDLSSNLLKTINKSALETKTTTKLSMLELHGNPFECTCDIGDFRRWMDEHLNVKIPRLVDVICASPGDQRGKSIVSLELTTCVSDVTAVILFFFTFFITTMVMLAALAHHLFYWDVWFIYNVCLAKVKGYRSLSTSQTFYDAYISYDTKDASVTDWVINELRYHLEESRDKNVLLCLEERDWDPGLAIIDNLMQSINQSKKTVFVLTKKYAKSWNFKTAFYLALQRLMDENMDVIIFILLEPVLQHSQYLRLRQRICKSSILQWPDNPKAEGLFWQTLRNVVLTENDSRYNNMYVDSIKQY

human TLR9, sequence (Q9NR96 26-1032): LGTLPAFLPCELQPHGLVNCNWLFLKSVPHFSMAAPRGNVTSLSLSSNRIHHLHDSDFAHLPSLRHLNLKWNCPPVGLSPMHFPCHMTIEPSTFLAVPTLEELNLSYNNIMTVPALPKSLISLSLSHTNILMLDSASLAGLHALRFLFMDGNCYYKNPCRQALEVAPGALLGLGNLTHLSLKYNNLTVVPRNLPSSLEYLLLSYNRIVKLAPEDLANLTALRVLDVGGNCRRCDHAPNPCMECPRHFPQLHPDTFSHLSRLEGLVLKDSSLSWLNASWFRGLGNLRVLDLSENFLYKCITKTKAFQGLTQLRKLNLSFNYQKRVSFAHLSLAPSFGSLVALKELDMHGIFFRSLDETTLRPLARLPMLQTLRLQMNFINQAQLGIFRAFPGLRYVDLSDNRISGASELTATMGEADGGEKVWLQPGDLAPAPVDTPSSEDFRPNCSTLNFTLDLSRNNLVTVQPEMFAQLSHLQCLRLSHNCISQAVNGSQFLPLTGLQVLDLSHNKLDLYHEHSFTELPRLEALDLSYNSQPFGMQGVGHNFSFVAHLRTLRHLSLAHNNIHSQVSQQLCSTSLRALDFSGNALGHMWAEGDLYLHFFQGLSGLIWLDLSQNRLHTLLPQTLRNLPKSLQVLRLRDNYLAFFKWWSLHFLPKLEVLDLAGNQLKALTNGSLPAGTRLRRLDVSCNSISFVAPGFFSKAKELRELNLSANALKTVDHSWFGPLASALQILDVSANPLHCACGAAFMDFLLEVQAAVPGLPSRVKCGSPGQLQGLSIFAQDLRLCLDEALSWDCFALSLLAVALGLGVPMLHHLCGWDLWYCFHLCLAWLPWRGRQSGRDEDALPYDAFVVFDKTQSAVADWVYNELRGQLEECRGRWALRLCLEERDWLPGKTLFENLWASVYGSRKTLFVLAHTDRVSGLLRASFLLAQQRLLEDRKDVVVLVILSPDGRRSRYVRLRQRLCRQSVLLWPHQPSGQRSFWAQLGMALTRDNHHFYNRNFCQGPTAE
human TLR7, sequence (Q9NYK1 27-1049): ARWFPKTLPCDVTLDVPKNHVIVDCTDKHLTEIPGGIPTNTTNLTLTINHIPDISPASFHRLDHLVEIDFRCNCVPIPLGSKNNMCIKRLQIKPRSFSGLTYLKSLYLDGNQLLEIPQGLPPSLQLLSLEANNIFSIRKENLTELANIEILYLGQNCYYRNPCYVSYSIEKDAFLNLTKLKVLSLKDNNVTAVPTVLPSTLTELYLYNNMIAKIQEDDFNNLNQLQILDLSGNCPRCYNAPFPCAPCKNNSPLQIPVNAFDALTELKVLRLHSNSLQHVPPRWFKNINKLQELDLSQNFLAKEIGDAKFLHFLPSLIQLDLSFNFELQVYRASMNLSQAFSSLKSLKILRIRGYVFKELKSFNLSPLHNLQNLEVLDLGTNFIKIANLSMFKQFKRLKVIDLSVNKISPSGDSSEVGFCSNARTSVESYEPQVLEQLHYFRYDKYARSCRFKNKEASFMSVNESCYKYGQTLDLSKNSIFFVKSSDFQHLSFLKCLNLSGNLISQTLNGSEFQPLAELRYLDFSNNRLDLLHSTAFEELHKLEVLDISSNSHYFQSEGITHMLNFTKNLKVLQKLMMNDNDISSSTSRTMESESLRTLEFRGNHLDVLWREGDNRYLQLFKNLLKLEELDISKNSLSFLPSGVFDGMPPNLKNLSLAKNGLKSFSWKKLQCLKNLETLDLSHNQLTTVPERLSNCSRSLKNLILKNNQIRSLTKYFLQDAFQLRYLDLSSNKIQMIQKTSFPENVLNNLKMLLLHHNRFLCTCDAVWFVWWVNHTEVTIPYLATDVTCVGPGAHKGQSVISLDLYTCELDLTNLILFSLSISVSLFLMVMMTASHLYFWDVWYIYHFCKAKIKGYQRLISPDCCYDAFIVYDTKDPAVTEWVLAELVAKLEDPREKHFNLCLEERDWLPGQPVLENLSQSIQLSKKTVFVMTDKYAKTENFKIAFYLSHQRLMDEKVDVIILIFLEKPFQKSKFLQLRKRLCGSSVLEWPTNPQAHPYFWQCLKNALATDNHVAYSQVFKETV

Question: With COc1cc(-c2[nH]c3ccc(C4CCC(NC(C)C)CC4)nc3c2C(C)C)cn2ncnc12 (stereo not drawn) [Example 193] as the molecule, how does the IC50 (human TLR9) read?
Answer: 648 nM

Question: And the IC50 (human TLR7)?
Answer: 1.5 nM

Question: And the IC50 (human TLR8)?
Answer: 6 nM

Question: Which IC50 (human TLR9) does the source give for COc1cc(-c2[nH]c3ccc(C4CCC(N5CCOCC5)CC4)nc3c2C(C)C)cn2ncnc12 (stereo not drawn) [Example 194] here?
Answer: 3590 nM

Question: What about the IC50 (human TLR7) of the same molecule?
Answer: 8.6 nM

Question: And the IC50 (human TLR8)?
Answer: 47 nM

Question: Which IC50 (human TLR9) does the source give for COc1cc(-c2[nH]c3ccc(C4CCC(N5CCCC5)CC4)nc3c2C(C)C)cn2ncnc12 (stereo not drawn) [Example 195] here?
Answer: 530 nM

Question: What about the IC50 (human TLR7) of the same molecule?
Answer: 0.8 nM

Question: What about the IC50 (human TLR8) of the same molecule?
Answer: 4.3 nM

Question: For COc1cc(-c2[nH]c3ccc(C4CCC(NCc5cnc(C)cn5)CC4)nc3c2C(C)C)cn2ncnc12 (stereo not drawn) [Example 196], which IC50 (human TLR9) is on record?
Answer: 712 nM

Question: And the IC50 (human TLR7)?
Answer: 1.7 nM

Question: And the IC50 (human TLR8)?
Answer: 10 nM

Question: How did the IC50 (human TLR9) turn out when COc1cc(-c2[nH]c3ccc(C4CCC(N5CCC[C@H]5CO)CC4)nc3c2C(C)C)cn2ncnc12 (stereo partly drawn) [Example 197] was run?
Answer: 134 nM

Question: And the IC50 (human TLR7)?
Answer: 0.34 nM

Question: And the IC50 (human TLR8)?
Answer: 1.7 nM

Question: What does the source list for COCCN(C)C1CCC(c2ccc3[nH]c(-c4cc(OC)c5ncnn5c4)c(C(C)C)c3n2)CC1 (stereo not drawn) [Example 198]?
Answer: IC50 (human TLR9): 1140 nM; IC50 (human TLR7): 1 nM; IC50 (human TLR8): 7.8 nM

Question: Which results are given for COc1cc(-c2[nH]c3ccc(C4CCC(N5CCCC5)CC4)nc3c2C(C)C)cn2ncnc12 (stereo not drawn) [Example 199]?
Answer: IC50 (human TLR9): 1190 nM; IC50 (human TLR7): 0.16 nM; IC50 (human TLR8): 6.4 nM

Question: For CC(C)c1c(-c2cn(C)c3ncccc23)[nH]c2ccc(C3CCC(N(C)CC(=O)N(C)C)CC3)nc12 (stereo not drawn) [Example 200], which IC50 (human TLR9) is on record?
Answer: 773 nM

Question: And the IC50 (human TLR7)?
Answer: 1.8 nM

Question: And the IC50 (human TLR8)?
Answer: 8.5 nM

Question: Which results are given for CC(C)c1c(-c2cn(C)c3ncccc23)[nH]c2ccc(C3CCC(N(C)CC(=O)N(C)C)CC3)nc12 (stereo not drawn) [Example 201]?
Answer: IC50 (human TLR9): 570 nM; IC50 (human TLR7): 1.5 nM; IC50 (human TLR8): 6 nM

Question: Which IC50 (human TLR9) does the source give for COc1cc(-c2[nH]c3ccc(C4CCC(N(C)Cc5cnc(C)cn5)CC4)nc3c2C(C)C)cn2ncnc12 (stereo not drawn) [Example 202] here?
Answer: 2030 nM

Question: What about the IC50 (human TLR7) of the same molecule?
Answer: 3.8 nM

Question: What about the IC50 (human TLR8) of the same molecule?
Answer: 28 nM

Question: With COc1cc(-c2[nH]c3ccc(C4CCC(N(C)Cc5cnc(C)cn5)CC4)nc3c2C(C)C)cn2ncnc12 (stereo not drawn) [Example 203] as the molecule, how does the IC50 (human TLR9) read?
Answer: 537 nM

Question: What about the IC50 (human TLR7) of the same molecule?
Answer: 2 nM

Question: And the IC50 (human TLR8)?
Answer: 7.9 nM

Question: What does the source list for COc1cc(-c2[nH]c3ccc(C4CCC(NCc5cnco5)CC4)nc3c2C(C)C)cn2ncnc12 (stereo not drawn) [Example 204]?
Answer: IC50 (human TLR9): 1330 nM; IC50 (human TLR7): 0.98 nM; IC50 (human TLR8): 2.9 nM

Question: With Cc1cnc(CNC2CCC(c3ccc4[nH]c(-c5cn(C)c6ncccc56)c(C(C)C)c4n3)CC2)cn1 (stereo not drawn) [Example 205] as the molecule, how does the IC50 (human TLR9) read?
Answer: 134 nM

Question: What about the IC50 (human TLR7) of the same molecule?
Answer: 0.42 nM

Question: What about the IC50 (human TLR8) of the same molecule?
Answer: 1 nM

Question: For COc1cc(-c2[nH]c3ccc(C4CCC(NCc5cnco5)CC4)nc3c2C(C)C)cn2ncnc12 (stereo not drawn) [Example 206], which IC50 (human TLR9) is on record?
Answer: 2390 nM

Question: And the IC50 (human TLR7)?
Answer: 9.5 nM

Question: What about the IC50 (human TLR8) of the same molecule?
Answer: 22 nM

Question: Cc1cnc(CNC2CCC(c3ccc4[nH]c(-c5cn(C)c6ncccc56)c(C(C)C)c4n3)CC2)cn1 (stereo not drawn) [Example 207] was tested. Which IC50 (human TLR9) did it give?
Answer: 253 nM

Question: And the IC50 (human TLR7)?
Answer: 1.9 nM

Question: And the IC50 (human TLR8)?
Answer: 4.4 nM

Question: With COc1cc(-c2[nH]c3ccc(C4CCC(N(C)Cc5ncccn5)CC4)nc3c2C(C)C)cn2ncnc12 (stereo not drawn) [Example 208] as the molecule, how does the IC50 (human TLR9) read?
Answer: 1350 nM

Question: What about the IC50 (human TLR7) of the same molecule?
Answer: 2.2 nM

Question: And the IC50 (human TLR8)?
Answer: 16 nM

Question: For COc1cc(-c2[nH]c3ccc(C4CCC(N(C)Cc5ncccn5)CC4)nc3c2C(C)C)cn2ncnc12 (stereo not drawn) [Example 209], which IC50 (human TLR9) is on record?
Answer: 641 nM

Question: What about the IC50 (human TLR7) of the same molecule?
Answer: 0.71 nM

Question: And the IC50 (human TLR8)?
Answer: 4 nM

Question: Which results are given for CNC(=O)CN(C)C1CCC(c2ccc3[nH]c(-c4cc(OC)c5ncnn5c4)c(C(C)C)c3n2)CC1 (stereo not drawn) [Example 210]?
Answer: IC50 (human TLR9): > 50000 nM; IC50 (human TLR7): > 3120 nM; IC50 (human TLR8): > 3120 nM

Question: COc1cc(-c2[nH]c3ccc(C4CCC(N(C)CC(=O)N(C)C)CC4)nc3c2C(C)C)cn2ncnc12 (stereo not drawn) [Example 211] was tested. Which IC50 (human TLR9) did it give?
Answer: 585 nM

Question: What about the IC50 (human TLR7) of the same molecule?
Answer: 1.1 nM

Question: And the IC50 (human TLR8)?
Answer: 6.8 nM

Question: For COc1cc(-c2[nH]c3ccc(C4CCC(N(C)CC(N)=O)CC4)nc3c2C(C)C)cn2ncnc12 (stereo not drawn) [Example 212], which IC50 (human TLR9) is on record?
Answer: 1190 nM

Question: What about the IC50 (human TLR7) of the same molecule?
Answer: 3.4 nM

Question: And the IC50 (human TLR8)?
Answer: 6.8 nM

Question: Which results are given for COCc1cc(-c2[nH]c3ccc(C4CCC(NCC(=O)N(C)C)CC4)nc3c2C(C)C)cn2ncnc12 (stereo not drawn) [Example 213]?
Answer: IC50 (human TLR9): 706 nM; IC50 (human TLR7): 9.5 nM; IC50 (human TLR8): 17 nM

Question: What does the source list for COCc1cc(-c2[nH]c3ccc(C4CCC(NC5COC5)CC4)nc3c2C(C)C)cn2ncnc12 (stereo not drawn) [Example 214]?
Answer: IC50 (human TLR9): 833 nM; IC50 (human TLR7): 3.9 nM; IC50 (human TLR8): 6.3 nM

Question: Which IC50 (human TLR9) does the source give for CC(C)c1c(-c2cc(CO)c3ncnn3c2)[nH]c2ccc(C3CCC(NC4COC4)CC3)nc12 (stereo not drawn) [Example 215] here?
Answer: 2250 nM

Question: What about the IC50 (human TLR8) of the same molecule?
Answer: 7.6 nM

Question: CC(C)c1c(-c2cc(CO)c3ncnn3c2)[nH]c2ccc(C3CCC(NCc4c[nH]nn4)CC3)nc12 (stereo not drawn) [Example 218] was tested. Which IC50 (human TLR9) did it give?
Answer: 389 nM

Question: What about the IC50 (human TLR7) of the same molecule?
Answer: 8.5 nM

Question: And the IC50 (human TLR8)?
Answer: 20 nM

Question: Which results are given for COc1cc(-c2[nH]c3ccc(C4CCC(NCC5(S(C)(=O)=O)CC5)CC4)nc3c2C(C)C)cn2ncnc12 (stereo not drawn) [Example 219]?
Answer: IC50 (human TLR9): 2480 nM; IC50 (human TLR7): 3.9 nM; IC50 (human TLR8): 8 nM

Question: What does the source list for CC(C)c1c(-c2cc(CO)c3ncnn3c2)[nH]c2ccc(C3CCC(NC4COC4)CC3)nc12 (stereo not drawn) [Example 220]?
Answer: IC50 (human TLR9): 1020 nM; IC50 (human TLR7): […]; IC50 (human TLR8): 6.1 nM

From patent US10544143B2, “4-azaindole compounds” (BRISTOL-MYERS SQUIBB COMPANY, priority 2017, dated 2020)
